Measurements as given in US10344019B2 (priority 2010, dated 2019).
Where two headings read alike, the source gives them in different places.

Columns and labels:
Assay in all cases: microbe, parasite or virus in culture
Type in all cases: cell-based
[1] = test system: HCV 1a RLuc cells (dicistronic genotype 1a H77 replicon, RLuc reporter); details: Hepatitis C virus, read-out: 1a
Procedure, shortened: (§1)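 Replicons used: genotype 1b Con1, 1a H77, 2a JFH-1, and a 2a JFH-1 chimera with J6-strain NS5A (M31 present), all dicistronic.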

[2] = test system: HCV 3a RLuc cells (NS5A chimeric genotype 1b Con1 replicon with consensus genotype 3a NS5A gene); details: Hepatitis C virus
Procedure, shortened: (§2)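 Replicon cells stably carrying the listed RLuc-encoding dicistronic replicons were seeded and treated with DMSO serial dilutions of compound (10 mM stocks) diluted into culture medium. After 72 h, cells were lysed and Renilla luciferase activity measured. EC50 was derived by non-linear regression.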

[3] = test system: HCV 1b RLuc cells (dicistronic genotype 1b Con1 replicon, RLuc reporter); details: Hepatitis C virus, read-out: 1b (nM)
Procedure, shortened: as §1

[4] = test system: HCV 2a JFH-1 Rluc cells (dicistronic genotype 2a JFH-1 replicon, RLuc reporter); details: Hepatitis C virus, genotype 2a JFH-1 replicon, read-out: 2a JFH
Procedure, shortened: as §1

[5] = test system: HCV 4a Rluc cells (NS5A chimeric genotype 1b Con1 replicon with genotype 4a NS5A gene); details: Hepatitis C virus, read-out: 4a
Procedure, shortened: as §2

[6] = 72 h, Table 1, genotype 1a H77 replicon, 72 hours
[7] = read-out: 3a, Table 1, genotype 3a NS5A chimeric replicon
[8] = genotype 1a H77 replicon, RLuc reporter
[9] = read-out: 3a, genotype 3a NS5A chimeric 1b Con1 replicon
[10] = 72 h, Table 2, genotype 1a H77 replicon, 72 hours
[11] = read-out: 3a, Table 2, genotype 3a NS5A chimeric replicon
[12] = read-out: 3a, genotype 3a replicon

| SMILES | EC50 ([3]; 72 h) | EC50 [5] | EC50 [1, 8] | EC50 [2, 9] | EC50 [3] | EC50 ([4]; RLuc reporter) | also measured |
| --- | --- | --- | --- | --- | --- | --- | --- |
| COC(=O)N[C@H](C(=O)N1CCC[C@H]1c1ncc(-c2ccc3c(c2)COc2c-3ccc3cc(-c4cnc([C@@H]5CCCN5C(=O)[C@H](NC(=O)OC)c5ccccc5)[nH]4)ccc23)[nH]1)[C@@H](C)OC [Example 14] | 0.01 nM | 0.001 to 0.99 nM |  |  |  |  | EC50 [1, 6]: 0.001 to 0.999 nM; EC50 [2, 7]: 0.001 to 0.99 nM; EC50 ([4]; 72 h, Table 1, 72 hours): 0.001 to 0.999 nM |
| COC(=O)N[C@H](C(=O)N1C[C@@H](C#N)C[C@H]1c1ncc(-c2ccc3cc(-c4ccc(-c5cnc([C@@H]6CCCN6C(=O)[C@H](NC(=O)OC)c6ccccc6)[nH]5)cc4)ccc3c2)[nH]1)C(C)C [Example 116] |  | 0.001 to 0.99 nM | 0.001 to 0.999 nM | 0.001 to 0.99 nM | 0.008 nM | 0.001 to 0.999 nM |  |
| COC(=O)N[C@H](C(=O)N1CC2(CC2)C[C@H]1c1ncc(-c2ccc3c(c2)C(F)(F)c2cc(-c4ccc5nc([C@@H]6[C@H]7CC[C@H](C7)N6C(=O)[C@@H](c6ccccc6)N6CCOCC6)[nH]c5c4)ccc2-3)[nH]1)C(C)C [Example 96] | 0.006 nM | 0.001 to 0.99 nM |  |  |  |  | EC50 [1, 10]: 0.001 to 0.999 nM; EC50 [2, 11]: 1 to 4.99 nM; EC50 ([4]; 72 h, Table 2, 72 hours): 1 to 44 nM |
| COC(=O)N[C@H](C(=O)N1CCC[C@H]1c1nc2ccc3cc(-c4ccc5cc(-c6cnc([C@@H]7[C@H]8CC[C@H](C8)N7C(=O)[C@H](NC(=O)OC)c7ccccc7)[nH]6)ccc5c4)ccc3c2[nH]1)C(C)C [Example 39] | 0.009 nM | 0.001 to 0.99 nM |  |  |  |  | EC50 [1, 10]: 0.001 to 0.999 nM; EC50 [2, 11]: 1 to 4.99 nM; EC50 ([4]; 72 h, Table 2, 72 hours): 1 to 44 nM |
| COC(=O)N[C@H](C(=O)N1CCC[C@H]1c1ncc(-c2ccc(-c3ccc4c(ccc5nc([C@@H]6CCCN6C(=O)[C@@H](NC(=O)OC)C(C)C)[nH]c54)c3)c(C#CC3CC3)c2)[nH]1)C(C)C [Example 349] |  | 0.001 to 0.99 nM |  |  | 0.005 nM |  | EC50 ([1]; genotype 1a replicon): 0.001 to 0.999 nM; EC50 [2, 12]: 0.001 to 0.99 nM; EC50 [4]: 0.001 to 0.999 nM |
| COC(=O)N[C@H](C(=O)N1CCC[C@H]1c1nc2c([nH]1)-c1ccc(-c3ccc4cc(-c5cnc([C@@H]6CCCN6C(=O)[C@H](NC(=O)OC)c6ccccc6)[nH]5)ccc4c3)cc1CC2)C1CCNCC1 [Example 284] |  | 0.001 to 0.99 nM | 1 to 44 nM | > 5 nM | 4.62 nM | 1 to 44 nM |  |
| COC(=O)N[C@@H](C(=O)N1CCC[C@H]1c1ncc(-c2ccc3cc(-c4ccc5c(c4)CCc4nc([C@@H]6CCCN6C(=O)[C@@H](NC(=O)OC(C)(C)C)C6CCOCC6)[nH]c4-5)ccc3c2)[nH]1)c1ccccc1 [Example 269] |  | 0.001 to 0.99 nM | > 44 nM | > 5 nM | 0.076 nM | 1 to 44 nM |  |
| COC(=O)N[C@H](C(=O)N1CCC[C@H]1c1ncc(-c2ccc3cc(-c4ccc5c(ccc6nc([C@@H]7[C@H]8CC[C@H](C8)N7C(=O)[C@H](NC(=O)OC)c7ccccc7)[nH]c65)c4)ccc3c2)[nH]1)[C@@H](C)OC [Example 328] |  | 0.001 to 0.99 nM |  |  | 0.008 nM |  | EC50 ([1]; genotype 1a replicon): 0.001 to 0.999 nM; EC50 [2, 12]: 1 to 4.99 nM; EC50 [4]: 0.001 to 0.999 nM |
| COC(=O)N[C@H](C(=O)N1CCC[C@H]1c1nc2ccc3cc(-c4ccc5c(c4)CCc4nc([C@@H]6[C@H]7CC[C@H](C7)N6C(=O)[C@@H](NC(=O)OC)C6CCOCC6)[nH]c4-5)ccc3c2[nH]1)C(C)C [Example 89] | 0.064 nM | 0.001 to 0.99 nM |  |  |  |  | EC50 [1, 10]: 0.001 to 0.999 nM; EC50 [2, 11]: 0.001 to 0.99 nM; EC50 ([4]; 72 h, Table 2, 72 hours): 0.001 to 0.999 nM |
| COC(=O)N[C@H](C(=O)N1CCC[C@H]1c1ncc(-c2ccc3c(c2)CCc2cc(-c4cnc([C@@H]5[C@H]6CC[C@H](C6)N5C(=O)[C@@H](NC(=O)OC)[C@@H](C)OC)[nH]4)ccc2-3)[nH]1)[C@@H](C)OC [Example 73] | 0.038 nM | 0.001 to 0.99 nM |  |  |  |  | EC50 [1, 10]: 0.001 to 0.999 nM; EC50 [2, 11]: 1 to 4.99 nM; EC50 ([4]; 72 h, Table 2, 72 hours): 0.001 to 0.999 nM |
| COC(=O)NC(C(=O)N1CCC[C@H]1c1nc(-c2ccc3cc(-c4ccc5c(ccc6nc([C@@H]7CCCN7C(=O)[C@@H](NC(=O)OC)C(C)C)[nH]c65)c4)ccc3c2)c[nH]1)c1cccnc1 (stereo partly shown) [Example 228] |  | 0.001 to 0.99 nM | 0.001 to 0.999 nM | 0.001 to 0.99 nM | 0.015 nM | 0.001 to 0.999 nM |  |
| COC(=O)N[C@H](C(=O)N1CCC[C@H]1c1ncc(-c2ccc3c4ccc(-c5cnc([C@@H]6CCCN6C(=O)[C@@H](NC(=O)OC)C(C)C)[nH]5)cc4c4nc5ccccc5nc4c3c2)[nH]1)C(C)C [Example 19] | 0.01 nM | 0.001 to 0.99 nM |  |  |  |  | EC50 [1, 6]: 1 to 44 nM; EC50 [2, 7]: > 5 nM; EC50 ([4]; 72 h, Table 1, 72 hours): 1 to 44 nM |
| COC(=O)N[C@H](C(=O)N1C[C@@H](O)C[C@H]1c1ncc(-c2ccc3cc(-c4ccc(-c5cnc([C@@H]6CCCN6C(=O)[C@H](NC(=O)OC)c6ccccc6)[nH]5)cc4)ccc3c2)[nH]1)C(C)C [Example 223] |  | 0.001 to 0.99 nM | 1 to 44 nM | 1 to 4.99 nM | 0.022 nM | 0.001 to 0.999 nM |  |
| COC(=O)N[C@H](C(=O)N1CCC[C@H]1c1ncc(-c2ccc(-c3ccc4c(ccc5nc([C@@H]6[C@H]7CC[C@H](C7)N6C(=O)[C@@H](NC(=O)OC)C(C)C)[nH]c54)c3)cc2Cl)[nH]1)C(C)C [Example 371] |  | 0.001 to 0.99 nM |  |  | 0.007 nM |  | EC50 ([1]; genotype 1a replicon): 0.001 to 0.999 nM; EC50 [2, 12]: > 5 nM; EC50 [4]: 0.001 to 0.999 nM |
| COC(=O)N[C@H](C(=O)N1CCC[C@H]1c1ncc(-c2ccc(-c3ccc(-c4cnc([C@@H]5[C@H]6CC[C@H](C6)N5C(=O)[C@@H](NC(=O)OC)C5CCOCC5)[nH]4)cc3)cc2)[nH]1)C(C)C [Example 61] | 0.087 nM | 0.001 to 0.99 nM |  |  |  |  | EC50 [1, 10]: 0.001 to 0.999 nM; EC50 [2, 11]: 1 to 4.99 nM; EC50 ([4]; 72 h, Table 2, 72 hours): 0.001 to 0.999 nM |
| CC#Cc1cc(-c2cnc([C@@H]3[C@H]4CC[C@H](C4)N3C(=O)[C@@H](NC(=O)OC)C3CCOCC3)[nH]2)ccc1-c1ccc2c(ccc3nc([C@@H]4CCCN4C(=O)[C@@H](NC(=O)OC)C(C)C)[nH]c32)c1 [Example 322] |  | 0.001 to 0.99 nM |  |  | 0.021 nM |  | EC50 ([1]; genotype 1a replicon): 0.001 to 0.999 nM; EC50 [2, 12]: 0.001 to 0.99 nM; EC50 [4]: 0.001 to 0.999 nM |
| COC(=O)N[C@H](C(=O)N1CCC[C@H]1c1ncc(-c2ccc3cc(-c4ccc(-c5cnc([C@@H]6CC(O)CN6C(=O)[C@H](NC(=O)OC)c6ccccc6)[nH]5)cc4)ccc3c2)[nH]1)C(C)C (stereo partly shown) [Example 256] |  | 0.001 to 0.99 nM | 0.001 to 0.999 nM | 0.001 to 0.99 nM | 0.015 nM | 0.001 to 0.999 nM |  |
| CC#Cc1cc(-c2cnc([C@@H]3CCCN3C(=O)[C@@H](NC(=O)OC)C(C)C)[nH]2)ccc1-c1ccc(-c2cnc([C@@H]3CCCN3C(=O)[C@@H](NC(=O)OC)C3CCOCC3)[nH]2)cc1 [Example 347] |  | 0.001 to 0.99 nM |  |  | 0.055 nM |  | EC50 ([1]; genotype 1a replicon): 0.001 to 0.999 nM; EC50 [2, 12]: 0.001 to 0.99 nM; EC50 [4]: 0.001 to 0.999 nM |
| COC(=O)N[C@H](C(=O)N1CC2(CC2)C[C@H]1c1ncc(-c2ccc(-c3ccc4cc(-c5cnc([C@@H]6CCCN6C(=O)[C@H](NC(=O)OC)c6ccccc6)[nH]5)ccc4c3)cc2)[nH]1)C(C)C [Example 233] |  | 0.001 to 0.99 nM | 0.001 to 0.999 nM | 0.001 to 0.99 nM | 0.005 nM | 0.001 to 0.999 nM |  |
| COC(=O)N[C@H](C(=O)N1CCC[C@H]1c1nc2ccc3cc(-c4csc5cc(-c6cnc([C@@H]7CCCN7C(=O)[C@H](NC(=O)OC)c7ccccc7)[nH]6)ccc45)ccc3c2[nH]1)C(C)C [Example 285] |  | 0.001 to 0.99 nM | 0.001 to 0.999 nM | 0.001 to 0.99 nM | 0.006 nM | 0.001 to 0.999 nM |  |
| COC(=O)N[C@H](C(=O)N1[C@@H]2C[C@@H]2C[C@H]1c1nc2ccc3cc(-c4ccc(-c5cnc([C@@H]6[C@H]7CC[C@H](C7)N6C(=O)[C@@H](NC(=O)OC)C6CCOCC6)[nH]5)cc4)ccc3c2[nH]1)C(C)C [Example 335] |  | 0.001 to 0.99 nM |  |  | 0.027 nM |  | EC50 ([1]; genotype 1a replicon): 0.001 to 0.999 nM; EC50 [2, 12]: 0.001 to 0.99 nM; EC50 [4]: 0.001 to 0.999 nM |
| COC(=O)N[C@H](C(=O)N1CC2(CC2)C[C@H]1c1ncc(-c2ccc(-c3ccc4cc(-c5cnc([C@@H]6CCCN6C(=O)[C@H](NC(=O)OC)c6ccccc6)[nH]5)ccc4c3)cc2)[nH]1)C1CCOCC1 [Example 234] |  | 0.001 to 0.99 nM | 0.001 to 0.999 nM | 0.001 to 0.99 nM | 0.011 nM | 0.001 to 0.999 nM |  |
| COC(=O)NC(C(=O)N1CCC[C@H]1c1ncc(-c2ccc3cc(-c4ccc5c(c4)CCc4nc([C@@H]6CCCN6C(=O)[C@@H](NC(=O)OC)C(C)C)[nH]c4-5)ccc3c2)[nH]1)c1cnccn1 (stereo partly shown) [Example 231] |  | 0.001 to 0.99 nM | 0.001 to 0.999 nM | 1 to 4.99 nM | 0.019 nM | 1 to 44 nM |  |
